Blank lines part the entries; values can stand above or below the compound they belong to.
Tests used:
Ramos RA1 B cells = experiment: Ramos FLIPR Assay (intracellular calcium); type: cell-based; details: Homo sapiens; Ramos RA1 B cells stimulated with F(ab')2 anti-IgM/IgG, peak intracellular calcium; read-out: Human Ramos Cell FLIPR (IC50 uM)
Method: Ramos RA1 B cells (ATCC CRL-1596) at a density of 2×10^6 cells/ml in RPMI minus phenol red (Invitrogen 11835-030) and 50 mM HEPES (Invitrogen 15630-130) containing 0.1% BSA (Sigma A8577) were added to one half volume of calcium loading buffer (BD bulk kit for probenecid sensitive assays, # 640177) and incubated at room temperature in the dark for 1 hour. Dye-loaded cells were pelleted (Beckmann GS-CKR, 1200 rpm, RT, 5 minutes) and resuspended in RT RPMI minus phenol red with 50 mM HEPES and 10% FBS to a density of 1×10^6 cells/ml. 150 μl aliquots (150,000/well) were plated into 96 well poly-D-lysine coated assay plates (BD 35 4640) and briefly centrifuged (Beckmann GS-CKR 800 rpm, 5 minutes, without brake). 50 μl compound dilutions in 0.4% DMSO/RPMI minus phenol red+50 mM HEPES+10% FBS were added to the wells and the plate was incubated at RT in the dark for 1 hour. Assay plate was briefly centrifuged as above prior to measuring calcium levels.
Using the FLIPR1 (Molecular devices), cells were stimulated by adding 50 μl 200 μg/ml F(ab′)2 anti-IgM/IgG (Jackson ImmunoResearch 109-006-127) diluted in 1X HBSS (Invitrogen 14025-076), 50 mM HEPES, 0.1% BSA. Changes in intracellular calcium concentrations were measured for 180 seconds and percent inhibition was determined relative to peak calcium levels seen in the presence of F(ab′)2 anti-IgM/IgG only.

human recombinant Btk = target: T1, human recombinant Btk (Homo sapiens, UniProt Q06187); experiment: Human Recombinant Btk Enzyme Assay; type: biochemical; details: human recombinant Btk 1 nM, ATP 20 μM, 60 min room temperature, Caliper LabChip
T1 construct: purchased Invitrogen Corporation
Method: Human Recombinant Btk Enzyme Assay
To V-bottom 384-well plates were added test compounds, human recombinant Btk (1 nM, Invitrogen Corporation), fluoresceinated peptide (1.5 μM), ATP (20 μM), and assay buffer (20 mM HEPES pH 7.4, 10 mM MgCl2, 0.015% Brij35 and 4 mM DTT in 1.6% DMSO), with a final volume of 30 μL. After incubating at room temperature for 60 min, the reaction was terminated by adding 45 μl of 35 mM EDTA to each sample. The reaction mixture was analyzed on the Caliper LabChip 3000 (Caliper, Hopkinton, Mass.) by electrophoretic separation of the fluorescent substrate and phosphorylated product. Inhibition data were calculated by comparison to no enzyme control reactions for 100% inhibition and no inhibitor controls for 0% inhibition. Dose response curves were generated to determine the concentration required inhibiting 50% of kinase activity (IC50). Compounds were dissolved at 10 mM in dimethylsulfoxide (DMSO) and evaluated at eleven concentrations.
Using this assay, the following IC50 values derived by non-linear regression analysis were determined and compared to those values of certain compounds in US 2007/0078136 and US 2008/0045536.

Human tonsillar B cells = experiment: Human Tonsillar B Cell Proliferation Assay; type: cell-based; details: tonsillar B cells stimulated with anti Human IgG+IgM F(ab')2 40 μg/ml, 72 hours, 3[H]-thymidine
Excerpt: Human Tonsillar B Cell Proliferation Assay
Tonsils were excised from patients undergoing routine tonsillectomy. Tonsil tissue was minced, mashed through screens and mononuclear cells were isolated on ficoll density gradients (Lymphocyte Separation Media; Mediatech Inc., Herndon, Va.). T cells were depleted from mononuclear cells by rosetting with sheep red blood cells (SRBC, Colorado Serum Company; Denver, Colo.). Tonsillar B cells prepared by this method were routinely >95% CD19^+ as measured by FACS analysis. B cells (1×10^5 cells per well) were added to serial dilutions of compounds in triplicate in 96-well flat-bottom plates in RPMI 1640, (Invitrogen, Grand Island, N.Y.), supplemented with 10% heat-inactivated fetal calf serum (FCS, Summit Biotechnology, Fort Collins, Colo.), and containing antibiotic/antimycotic (Invitrogen, 1:100 dilution) and gentamicin (Invitrogen, 5 μg/ml). Cells were stimulated with 40 μg/ml AffinPure F(ab′)2 Fragment Goat anti Human IgG+IgM (Jackson Immunoresearch, West Grove, Pa.) in a total volume of 0.2 ml. Cultures were incubated for 72 hours, and pulsed for the last 6 hours with one μCi/well of ^3[H]-thymidine (PerkinElmer, Boston, Mass.) prior to harvest on a Packard cell harvester (PerkinElmer), and counted by liquid scintillation on a Packard TopCount NXT (PerkinElmer).

Mouse splenic B cells = experiment: Mouse Splenic B Cell Proliferation Assay; type: cell-based; details: Balb/c splenic B cells stimulated with anti-mouse IgG IgM F(ab')2 10 μg/ml, 72 hours, 3[H]-thymidine
Method: Mouse Splenic B Cell Proliferation Assay
Spleens from Balb/c mice (<12 weeks old) were mashed through screens and red blood cells were removed from splenocytes with RBC lysing buffer (Sigma-Aldrich Chemical Co, —St. Louis, Mo.). T cells were depleted by incubation on nylon wool columns (Wako, Richmond, Va.). Resulting splenic B cells prepared this way were routinely >90% CD19^+ as measured by FACS analysis. B cells (1×10^5 cells per well) were added to serial dilutions of compounds in triplicate in 96-well flat-bottom plates in RPMI 1640 (Invitrogen, Grand Island, N.Y.), supplemented with 10% heat-inactivated fetal calf serum (FCS, Summit Biotechnology, Fort Collins, Colo.), containing 1% L-glutamine (Invitrogen), […] gentamicin (Invitrogen) and 5×10^−5M β-mercaptoethanol (Sigma-Aldrich). Cells were stimulated with 10 μg/ml of Affinipure F(ab′)2 fragment goat anti-mouse IgG IgM (Jackson Immunoresearch, West Grove, Pa.). Cultures were incubated for 72 hours, and pulsed for the last 6 hours with one μCi/well of ^3[H]-thymidine (PerkinElmer, Boston, Mass.) prior to harvest on a Packard cell harvester (PerkinElmer), and counted by liquid scintillation on a Packard TopCount NXT (PerkinElmer).

T1 sequence (Q06187 whole entry): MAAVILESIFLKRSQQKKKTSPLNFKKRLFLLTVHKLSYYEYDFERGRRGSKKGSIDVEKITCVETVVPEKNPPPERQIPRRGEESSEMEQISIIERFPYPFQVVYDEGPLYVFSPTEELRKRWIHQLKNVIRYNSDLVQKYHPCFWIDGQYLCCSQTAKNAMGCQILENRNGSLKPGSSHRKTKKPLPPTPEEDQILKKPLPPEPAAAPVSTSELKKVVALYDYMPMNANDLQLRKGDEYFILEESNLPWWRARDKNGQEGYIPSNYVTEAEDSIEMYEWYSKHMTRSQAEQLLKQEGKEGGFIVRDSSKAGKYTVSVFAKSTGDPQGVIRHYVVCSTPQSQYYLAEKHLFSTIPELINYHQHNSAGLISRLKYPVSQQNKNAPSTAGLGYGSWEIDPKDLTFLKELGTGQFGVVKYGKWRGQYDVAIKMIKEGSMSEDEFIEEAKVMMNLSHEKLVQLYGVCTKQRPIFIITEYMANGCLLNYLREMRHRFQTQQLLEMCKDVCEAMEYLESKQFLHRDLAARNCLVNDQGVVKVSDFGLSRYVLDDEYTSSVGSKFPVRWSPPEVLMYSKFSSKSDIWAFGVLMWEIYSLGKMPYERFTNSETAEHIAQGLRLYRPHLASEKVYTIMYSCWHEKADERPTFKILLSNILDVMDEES

IC50 (Ramos RA1 B cells): 4.08 µM
IC50 (human recombinant Btk): 0.8 µM
SMILES: CC(C)(C)c1ccc(C(=O)N[C@H]2CCCN(c3nc(Nc4ccc(C(=O)N5CCOCC5)cc4)c4nccn4n3)C2)cc1 [Example 2, (S)-4-tert-Butyl-N-(1-(4-(4-(morpholine-4-carbonyl)phenylamino)imidazo[1,2-f][1,2,4]triazin-2-yl)piperidin-3-yl)benzamide]

IC50 (human recombinant Btk): 0.2 µM
SMILES: O=C(N[C@@H]1CCCN(c2nc(Nc3ccc(C(=O)N4CCOCC4)cc3)c3nccn3n2)C1)OCc1ccccc1 [Example 4, (R)-Benzyl 1-(4-(4-(morpholine-4-carbonyl)phenylamino)imidazo[1,2-f][1,2,4]triazin-2-yl)piperidin-3-ylcarbamate]

IC50 (Ramos RA1 B cells): 0.028 µM
IC50 (human recombinant Btk): 0.013 µM
SMILES: CC(C)(C)c1ccc(C(=O)N[C@@H]2CCCN(c3nc(Nc4ccc(C(=O)N5CCNCC5)cc4)c4nccn4n3)C2)cc1 [Example 11, (R)-4-tert-Butyl-N-(1-(4-(4-(piperazine-1-carbonyl)phenylamino)imidazo[1,2-f][1,2,4]triazin-2-yl)piperidin-3-yl)benzamide]

IC50 (human recombinant Btk): 0.081 µM
SMILES: CC(C)(C)c1ccc(C(=O)N[C@@H]2CCCN(c3nc(Nc4ccc(C(=O)N5CC(O)C5)cc4)c4nccn4n3)C2)cc1 [Example 20]

IC50 (Ramos RA1 B cells): 0.015 µM
SMILES: CC(C)(C)c1ccc(C(=O)N[C@@H]2CCCN(c3nc(Nc4ccc(C(=O)N5CCOCC5)cc4)c4ncc(N)n4n3)C2)cc1 [Example 26, (R)—N-(1-(7-Amino-4-(4-(morpholine-4-carbonyl)phenylamino)imidazo[1,2-f][1,2,4]triazin-2-yl)piperidin-3-yl)-4-tert-butylbenzamide]
IC50 (Mouse splenic B cells): 0.08 µM

IC50 (human recombinant Btk): 0.014 µM
SMILES: Nc1cnc2c(Nc3ccc(C(=O)N4CCOCC4)cc3)nc(N3CCC[C@@H](NC(=O)c4cc5ccccc5[nH]4)C3)nn12 [Example 28, (R)—N-(1-(7-Amino-4-(4-(morpholine-4-carbonyl)phenylamino)imidazo[1,2-f][1,2,4]triazin-2-yl)piperidin-3-yl)-1H-indole-2-carboxamide]

IC50 (human recombinant Btk): 0.1 µM
SMILES: CC(C)(C)c1ccc(C(=O)N[C@@H]2CCCN(c3nc(Nc4ccc(C(=O)N5CCOCC5)cc4)c4ncc(C#N)n4n3)C2)cc1 [Example 32, (R)-4-tert-Butyl-N-(1-(7-cyano-4-(4-(morpholine-4-carbonyl)phenylamino)imidazo[1,2-f][1,2,4]triazin-2-yl)piperidin-3-yl)benzamide]
IC50 (Mouse splenic B cells): 0.31 µM

IC50 (Ramos RA1 B cells): 1.24 µM
SMILES: NCc1cnc2c(Nc3ccc(C(=O)N4CCOCC4)cc3)nc(N3CCC[C@@H](NC(=O)c4cc5ccccc5[nH]4)C3)nn12 [Example 35, (R)—N-(1-(7-(Aminomethyl)-4-(4-(morpholine-4-carbonyl)phenylamino)imidazo[1,2-f][1,2,4]triazin-2-yl)piperidin-3-yl)-1H-indole-2-carboxamide]

IC50 (human recombinant Btk): 0.228 µM
SMILES: N[C@H]1CC[C@H](Nc2cc(Nc3ccc4ccccc4n3)c3nccn3n2)CC1 [I(159) in US 2008/0045536, reference compound]

IC50 (human recombinant Btk): > 50 µM
SMILES: Cc1c(N[C@H]2CC[C@H](N)CC2)nn2ccnc2c1Nc1ccc(C(=O)N2CCOCC2)cc1 [III(18) in US 2008/0045536, reference compound]

IC50 (human recombinant Btk): 1.96 µM
SMILES: O=C(c1ccc(Nc2cc(N[C@H]3CCCNC3)nn3ccnc23)cc1)N1CCOCC1 [V(10) in US 2008/0045536, reference compound]

IC50 (human recombinant Btk): 1.76 µM
SMILES: CCOc1ccc(Nc2nc(N[C@H]3CC[C@H](N)CC3)nn3ccnc23)cc1 [XIII in US 2007/0078136, reference compound]

The next lines start with the compound.

SMILES: CC(C)(C)c1ccc(C(=O)N[C@@H]2CCCN(c3nc(Nc4ccc(C(=O)N5CCOCC5)cc4)c4nccn4n3)C2)cc1 [Example 1, (R)-4-tert-Butyl-N-(1-(4-(4-(morpholine-4-carbonyl)phenylamino)imidazo[1,2-f][1,2,4]triazin-2-yl)piperidin-3-yl)benzamide]
IC50 (Ramos RA1 B cells): 0.26 µM

SMILES: CN1CCN(C(=O)c2ccc(Nc3nc(N4CCC[C@@H](NC(=O)c5ccc(C(C)(C)C)cc5)C4)nn4ccnc34)cc2)CC1 [Example 5, (R)-4-tert-Butyl-N-(1-(4-(4-(4-methylpiperazine-1-carbonyl)phenylamino)imidazo[1,2-f][1,2,4]triazin-2-yl)piperidin-3-yl)benzamide]
IC50 (Human tonsillar B cells): 0.037 µM

SMILES: CC(C)(C)c1ccc(C(=O)N[C@@H]2CCCN(c3nc(Nc4ccc(C(=O)N5CCN(CCO)CC5)cc4)c4nccn4n3)C2)cc1 [Example 6, (R)-4-tert-Butyl-N-(1-(4-(4-(4-(2-hydroxyethyl)piperazine-1-carbonyl)phenylamino)imidazo[1,2-f][1,2,4]triazin-2-yl)piperidin-3-yl)benzamide]
IC50 (Human tonsillar B cells): 0.17 µM

SMILES: CC(C)(C)c1ccc(C(=O)N[C@@H]2CCCN(c3nc(Nc4ccc(C(=O)N[C@@H]5CCNC5)cc4)c4nccn4n3)C2)cc1 [Example 9, 4-tert-Butyl-N—((R)-1-(4-(4-((S)-pyrrolidin-3-ylcarbamoyl)phenylamino)imidazo[1,2-f][1,2,4]triazin-2-yl)piperidin-3-yl)benzamide]
IC50 (Mouse splenic B cells): 1.29 µM
IC50 (Human tonsillar B cells): 1.91 µM

SMILES: CC(C)(C)c1ccc(C(=O)N[C@@H]2CCCN(c3nc(Nc4ccc(C(N)=O)cc4)c4nccn4n3)C2)cc1 [Example 10, (R)-4-tert-Butyl-N-(1-(4-(4-carbamoylphenylamino)imidazo[1,2-f][1,2,4]triazin-2-yl)piperidin-3-yl)benzamide]
IC50 (Mouse splenic B cells): 0.33 µM

SMILES: CC(C)(C)c1ccc(C(=O)N[C@@H]2CCCN(c3nc(Nc4ccc(C(=O)N[C@H]5CCNC5)cc4)c4nccn4n3)C2)cc1 [Example 12, 4-tert-Butyl-N—((R)-1-(4-(4-((R)-pyrrolidin-3-ylcarbamoyl)phenylamino)imidazo[1,2-f][1,2,4]triazin-2-yl)piperidin-3-yl)benzamide]
IC50 (Human tonsillar B cells): 1.58 µM

SMILES: NC(=O)c1cnc2c(Nc3ccc(C(=O)N4CCOCC4)cc3)nc(N3CCC[C@@H](NC(=O)c4ccccc4)C3)nn12 [Example 30, (R)-2-(3-Benzamidopiperidin-1-yl)-4-(4-(morpholine-4-carbonyl)phenylamino)imidazo[1,2-f][1,2,4]-triazine-7-carboxamide]
IC50 (Mouse splenic B cells): 0.98 µM

SMILES: O=C(N[C@@H]1CCCN(c2nc(Nc3ccc(C(=O)N4CCOCC4)cc3)c3nccn3n2)C1)c1ccccc1 [Example 36, (R)—N-(1-(4-(4-(morpholine-4-carbonyl)phenylamino)imidazo[1,2-f][1,2,4]triazin-2-yl)piperidin-3-yl)benzamide]
IC50 (Human tonsillar B cells): 0.45 µM
